Like-named read-outs stand apart in the source and are kept apart here.
Columns and labels:
Rat liver α-2,3-ST = Rat liver α-2,3-ST (Rattus norvegicus (Rat), UniProt Q02734); experiment: α-2,3-ST inhibition assay (IC50), RP-HPLC of sialylated disaccharide product; type: biochemical; details: for fold potency increase over 19: vs compound 19
Experimental: Compound synthesis was carried out with the following materials according the following general procedures. All chemicals and buffers were purchased from Sigma, Aldrich, or Acros Organics; and all amino acids were purchased from Advanced Chemtech. CMP-Neu5Ac was synthesized starting with sialic acid (Traving & Schauer, Cell. Mol. Life Sci., 1998, 54:1330; Schwarzkopf et al., Proc. Natl. Acad. Sci. USA, 2002, 99:5267). Synthesis of lactose acceptor was achieved as described in Harduin-Lepers et al., Biochimie, 2001, 83:727. Rat liver α-2,3-ST was obtained from CalBiochem at a concentration of 3.7 mU/μL, stored at −80° C., and used within one week. Melting points (m.p.) were recorded with a capillary melting point apparatus (Electrothermal MEL-TEMP); FT-IR spectra were recorded with Perkin Elmer FT-IR Spectrometer (Paragon 1000) in KBr pellets; ^1H and ^13C NMR spectra were recorded with Bruker AMX400 or 500 MHz instruments. Proton chemical shifts (δ) are reported in parts per million (ppm) relative to the methine singlet at 7.24 ppm for the residual CHCl3 in the deuteriochloroform, or the methyl pentet at 3.30 ppm for the residual CHD2OD in the methanol-d4. Carbon chemical shifts are reported in ppm relative to the internal ^13C signals in CDCl3 (77.0 ppm) and CD3OD-d4 (49.0 ppm). Mass spectra were obtained with a FAB JMS-700 double focusing mass spectrometer (JEOL, Tokyo, Japan), MALDI Voyager DE-PRO (Applied Biosystem Houston, USA), and ESI Finnigan LCQ mass spectrometer (Thermo Finnigan, San Jose, Calif., United States) in negative mode. […] The separation procedure was performed using H2O/0.1% trifluoroacetic acid (TFA) (A) and CH3CN/0.05% TFA (B) as eluents.
Each compound was tested for α-2,3-ST inhibition using CMP-Neu5Ac as a substrate and a modified disaccharide with a 4,5-dimethoxy-2-nitrobenzyl group as a UV-labeled acceptor. Specifically, inhibition assays were performed in triplicate in reaction solution containing 200 mM MES buffer, 100 mM sodium chloride, 0.5 mM disodium-EDTA, 0.01% Triton X-100, 20 μM modified disaccharide, 1.4 mU α-2,3-ST and inhibitor (in dimethyl sulfoxide) in a total volume of 55. Reactions were incubated at 37° C. for 10 minutes at which point 1 mM CMP-Neu5Ac (to a final concentration 3 μM) was added. The solution was then incubated at 37° C. until a detectable amount of product was produced. The reaction was terminated by quenching the solution mixture with heat at 100° C. for 5 minutes. Enzyme activity was determined by monitoring the quantity of sialylated disaccharide product produced over time at 348 nm by RP-HPLC (Supelco Discovery® HS C18, 5 μm, 4.6 mm×25 cm).

CL1-5 lung cancer cells = experiment: Cytotoxicity / cell growth, trypan blue exclusion; type: cell-based; details: 5 μM or 10 μM, 48 hours, FBS-free media
Experimental: To determine the effect of the synthesized membrane-permeable α-2,3-ST inhibitors disclosed in Example 1 on cellular processes, in vitro cytotoxicity and adhesion assays were performed on the highly metastatic lung cancer cell line CL1-5. CL1-5 cells were plated at 1×10^6 cells per 60 mm culture dish in DMEM containing 10% fetal bovine serum (FBS) in 5% CO2. The following day the media was replaced with FBS-free media containing inhibitors at 5 μM or 10 μM concentration in DMSO. Controls cells were treated with 0.1% DMSO-containing medium without inhibitor. Cell number and viability were determined 48 hours later by trypan blue exclusion. Treatment with three α-2,3-ST inhibitors, N-Pentyonic (compound 21), Lith-Triethyl-de (compound 20), and Lith-o-Asp (compound 13), inhibited CL1-5 cell growth by between 10-20% compared to control (FIG. 2A).

[1] = α-2,3-ST, CMP-Neu5Ac substrate, triplicate, read-out: IC50

Rat liver α-2,3-ST, sequence (Q02734 whole entry): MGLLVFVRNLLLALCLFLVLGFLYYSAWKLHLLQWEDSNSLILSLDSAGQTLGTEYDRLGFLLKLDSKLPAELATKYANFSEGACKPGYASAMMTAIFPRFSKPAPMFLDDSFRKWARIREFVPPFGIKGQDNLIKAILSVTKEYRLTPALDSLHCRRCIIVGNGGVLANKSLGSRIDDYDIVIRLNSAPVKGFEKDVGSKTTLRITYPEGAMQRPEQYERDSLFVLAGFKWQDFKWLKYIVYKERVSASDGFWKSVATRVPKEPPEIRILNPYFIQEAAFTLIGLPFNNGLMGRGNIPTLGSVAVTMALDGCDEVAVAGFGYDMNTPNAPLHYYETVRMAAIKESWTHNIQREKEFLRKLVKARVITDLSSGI

Compound | IC50 (Rat liver α-2,3-ST; [1]) | further results
C[C@H](CCCO)C1CC[C@H]2C3CC[C@@H]4C[C@H](O)CC[C@]4(C)C3CC[C@]12C (stereo partly drawn) [Compound 7, (3R,5R,10S,13R,14S)-17-((R)-5-hydroxypentan-2-yl)-10,13-dimethyl-hexadecahydro-1H-cyclopenta[a]phenanthren-3-ol] | 0.351 mM | fold decrease in potency relative to lithocholic acid (Rat liver α-2,3-ST; vs lithocholic acid): 5 to 17 fold
C[C@H](CCCOP(=O)(Oc1ccccc1)Oc1ccccc1)C1CC[C@H]2C3CC[C@@H]4C[C@H](O)CC[C@]4(C)C3CC[C@]12C (stereo partly drawn) [Compound 8, (R)-4-((3R,5R,10S,13R,14S)-3-hydroxy-10,13-dimethyl-hexadecahydro-1H-cyclopenta[a]phenanthren-17-yl)pentyl diphenyl phosphonate] | > 0.1 mM | fold decrease in potency relative to lithocholic acid (Rat liver α-2,3-ST; vs lithocholic acid): 5 to 17 fold
C[C@H](CCC(=O)NCC(=O)O)C1CC[C@H]2C3CC[C@@H]4C[C@H](O)CC[C@]4(C)C3CC[C@]12C (stereo partly drawn) [Compound 9, 2-((R)-4-((3R,5R,10S,13R,14S)-3-hydroxy-10,13-dimethyl-hexadecahydro-1H-cyclopenta[a]phenanthren-17-yl)pentanamido)acetic acid] | 0.025 mM | 
C[C@H](CCC(=O)N[C@@H](CC(=O)O)C(=O)O)C1CC[C@H]2C3CC[C@@H]4C[C@H](O)CC[C@]4(C)C3CC[C@]12C (stereo partly drawn) [Compound 10, (S)-2-((R)-4-((3R,5R,10S,13R,14S)-3-hydroxy-10,13-dimethyl-hexadecahydro-1H-cyclopenta[a]phenanthren-17-yl)pentanamido)succinic acid] | 0.016 mM | 
C[C@H](CCC(=O)O)C1CC[C@H]2C3CC[C@@H]4CC(=O)CC[C@]4(C)C3CC[C@]12C (stereo partly drawn) [Compound 11, (R)-4-((5R,10S,13R,14S)-10,13-dimethyl-3-oxo-hexadecahydro-1H-cyclopenta[a]phenanthren-17-yl)pentanoic acid] | 0.139 mM | fold decrease in potency relative to lithocholic acid (Rat liver α-2,3-ST; vs lithocholic acid): 7 fold
C[C@H](CCC(=O)O)C1CC[C@H]2C3CC[C@@H]4C[C@H](OC(=O)CCC(=O)O)CC[C@]4(C)C3CC[C@]12C (stereo partly drawn) [Compound 12, (R)-4-((3R,5R,10S,13R,14S)-3-(3-carboxypropanoyloxy)-10,13-dimethyl-hexadecahydro-1H-cyclopenta[a]phenanthren-17-yl)pentanoic acid] | 0.012 mM | fold potency over lithocholic acid (Rat liver α-2,3-ST; vs lithocholic acid): 2 fold
C[C@H](CCC(=O)OC(C)(C)C)C1CC[C@H]2C3CC[C@@H]4C[C@H](OC(=O)CCC(=O)O)CC[C@]4(C)C3CC[C@]12C (stereo partly drawn) [Compound 14, 4-((3R,5R,10S,13R,14S)-17-((R)-5-tert-butoxy-5-oxopentan-2-yl)-10,13-dimethyl-hexadecahydro-1H-cyclopenta[a]phenanthren-3-yloxy)-4-oxobutanoic acid] | 0.013 mM | 
C[C@H](CCC(=O)NCC(=O)O)C1CC[C@H]2C3CC[C@@H]4C[C@H](OC(=O)CCC(=O)O)CC[C@]4(C)C3CC[C@]12C (stereo partly drawn) [Compound 15, 4-((3R,5R,10S,13R,14S)-17-((R)-5-(carboxymethylamino)-5-oxopentan-2-yl)-10,13-dimethyl-hexadecahydro-1H-cyclopenta[a]phenanthren-3-yloxy)-4-oxobutanoic acid] | 0.022 mM | 
C[C@H](CCC(=O)N[C@@H](CC(=O)O)C(=O)O)C1CC[C@H]2C3CC[C@@H]4C[C@H](OC(=O)CCC(=O)O)CC[C@]4(C)C3CC[C@]12C (stereo partly drawn) [Compound 16, (S)-2-((R)-4-((3R,5R,10S,13R,14S)-3-(3-carboxypropanoyloxy)-10,13-dimethyl-hexadecahydro-1H-cyclopenta[a]phenanthren-17-yl)pentanamido)succinic acid] | 0.018 mM | 
C[C@H](CCC(=O)O)C1CC[C@H]2C3CC[C@@H]4C[C@H](OC(=O)[C@H](N)CC(=O)O)CC[C@]4(C)C3CC[C@]12C (stereo partly drawn) [Compound 17, (R)-4-((3R,5R,10S,13R,14S)-3-((R)-2-amino-3-carboxypropanoyloxy)-10,13-dimethyl-hexadecahydro-1H-cyclopenta[a]phenanthren-17-yl)pentanoic acid] | 0.006 mM | fold improvement in potency over 13 (Rat liver α-2,3-ST; vs compound 13): 2 fold
C[C@H](CCCn1cc(CCO)nn1)C1CC[C@H]2C3CC[C@@H]4C[C@H](O)CC[C@]4(C)C3CC[C@]12C (stereo partly drawn) [Compound 18, (3R,5R,10S,13R,14S)-17-((R)-5-(4-(2-hydroxyethyl)-1H-1,2,3-triazol-1-yl)pentan-2-yl)-10,13-dimethyl-hexadecahydro-1H-cyclopenta[a]phenanthren-3-ol] | > 0.1 mM | fold less potent than 21 (Rat liver α-2,3-ST; vs compound 21): at least 10 fold; fold less potent than 22 (Rat liver α-2,3-ST; vs compound 22): ≥ 20 fold
C[C@H](CCCn1cc(CC(N)C(=O)O)nn1)C1CC[C@H]2C3CC[C@@H]4C[C@H](O)CC[C@]4(C)C3CC[C@]12C (stereo partly drawn) [Compound 19, 2-amino-3-(1-((R)-4-((3R,5R,10S,13R,14S)-3-hydroxy-10,13-dimethyl-hexadecahydro-1H-cyclopenta[a]phenanthren-17-yl)pentyl)-1H-1,2,3-triazol-4-yl)propanoic acid] | 0.083 mM | 
CCOP(=O)(OCC)C(Cc1cn(CCC[C@@H](C)C2CC[C@H]3C4CC[C@@H]5C[C@H](O)CC[C@]5(C)C4CC[C@]23C)nn1)C(=O)O (stereo partly drawn) [Compound 20, 2-(diethoxyphosphoryl)-3-(1-((R)-4-((3R,5R,10S,13R,14S)-3-hydroxy-10,13-dimethyl-hexadecahydro-1H-cyclopenta[a]phenanthren-17-yl)pentyl)-1H-1,2,3-triazol-4-yl)propanoic acid] | 0.007 mM | inhibition of CL1-5 cell growth compared to control (CL1-5 lung cancer cells): 10-20%; fold potency increase over 19 (Rat liver α-2,3-ST): 8-12 fold
C[C@H](CCCn1cc(CCC(=O)O)nn1)C1CC[C@H]2C3CC[C@@H]4C[C@H](O)CC[C@]4(C)C3CC[C@]12C (stereo partly drawn) [Compound 21, 3-(1-((R)-4-((3R,5R,10S,13R,14S)-3-hydroxy-10,13-dimethyl-hexadecahydro-1H-cyclopenta[a]phenanthren-17-yl)pentyl)-1H-1,2,3-triazol-4-yl)propanoic acid] | 0.01 mM | inhibition of CL1-5 cell growth compared to control (CL1-5 lung cancer cells): 10-20%; fold potency increase over 19 (Rat liver α-2,3-ST): 8-12 fold
C[C@H](CCC(=O)O)[C@H]1CC[C@H]2[C@@H]3CC[C@@H]4C[C@H](O)CC[C@]4(C)[C@H]3CC[C@]12C [lithocholic acid] |  | IC50 (Rat liver α-2,3-ST; steroid screen for α-2,3-ST inhibition, unit mM, read-out: IC50 value): 0.021 mM

— patent publication US8940719B2, “Lithocholic acid analogues that inhibit sialyltransferase” (Academia Sinica, priority 2006, dated 2015)
